Activity calls are given as the source filed them. The calls are words filed in the database; no cut-off is given here.
Assays:
[1] = Half life in dog liver microsomes in presence of NADPH by HPLC analysis; type: ADME, Canis lupus familiaris, microsome
[2] = Metabolic stability in rat liver microsomes assessed as parent compound remaining after 60 mins in presence of NADPH by HPLC analysis; type: ADME, microsome; details: read-out: Stability
MDA-MB-231 [3] = assay: Induction of apoptosis in human MDA-MB-231 cells assessed as cleaved PARP protein expression up to 1 uM after 48 hrs by Western blot analysis; type: functional, cell-based
U-251 = assay: Cytotoxicity against human U251 cells assessed as reduction in cell viability after 72 hrs by MTT assay; type: functional, cell-based; details: U-251, 72 h
MDA-MB-231 [4] = assay: Induction of apoptosis in human MDA-MB-231 cells assessed as dead cells at 0.1 uM after 24 hrs by Annexin V-FITC/propidium iodide staining based flow cytometry (reference value: 2.15%); type: functional
SK-BR-3 = assay: Cytotoxicity against human SKBR3 cells assessed as reduction in cell viability after 72 hrs by MTT assay; type: functional, cell-based; details: SK-BR-3, 72 h
[5] = Metabolic stability in rat liver microsomes assessed as parent compound remaining after 30 mins in presence of NADPH by HPLC analysis; type: ADME, microsome; details: read-out: Stability
HCT-116 = assay: Cytotoxicity against human HCT116 cells assessed as reduction in cell viability after 72 hrs by MTT assay; type: functional, cell-based; details: HCT-116, 72 h
A549 [6] = assay: Effect on microtubule formation in human A549 cells assessed as morphological changes at 1 to 10 umol after 18 hrs; type: cell-based
[7] = Metabolic stability in mouse liver microsomes assessed as parent compound remaining after 150 mins in presence of NADPH by HPLC analysis; type: ADME, microsome; details: read-out: Stability
[8] = Selectivity index, ratio of IC50 for human HL7702 cells to IC50 for human HCT116 cells; type: toxicity; details: HL7702 cells versus HCT116 cells, read-out: Ratio IC50
[9] = Selectivity index, ratio of IC50 for human HL7702 cells to IC50 for human U251 cells; type: toxicity; details: HL7702 cells versus U251 cells, read-out: Ratio IC50
NCI/ADR-RES [10] = assay: Growth inhibition of human MCF7/ADR cells after 72 hrs by MTT assay; type: functional, cell-based
[11] = Metabolic stability in rat liver microsomes assessed as parent compound remaining after 120 mins in presence of NADPH by HPLC analysis; type: ADME, microsome; details: read-out: Stability
[12] = Octanol-water partition coefficient, log P of the compound; type: physicochemical
HFF = assay: Cytotoxicity against HFF cells assessed as reduction in cell viability after 72 hrs by MTT assay; type: cell-based; details: Homo sapiens
[13] = Selectivity index, ratio of IC50 for HFF cells to IC50 for human HCT116 cells; type: toxicity; details: HFF cells versus HCT116 cells, read-out: Ratio IC50
[14] = Metabolic stability in dog liver microsomes assessed as parent compound remaining after 90 mins in presence of NADPH by HPLC analysis; type: ADME, Canis lupus familiaris, microsome; details: read-out: Stability
[15] = Metabolic stability in dog liver microsomes assessed as parent compound remaining after 120 mins in presence of NADPH by HPLC analysis; type: ADME, Canis lupus familiaris, microsome; details: 2 h
NCI/ADR-RES [16] = assay: Growth inhibition of human MCF7/ADR cells at 2.5 to 5 uM after 72 hrs by MTT assay relative to control; type: functional
[17] = Selectivity index, ratio of IC50 for human HL7702 cells to IC50 for human A549 cells; type: toxicity; details: HL7702 cells versus A549 cells, read-out: Ratio IC50
MDA-MB-231 [18] = assay: Induction of apoptosis in human MDA-MB-231 cells assessed as dead cells at 1 uM after 24 hrs by Annexin V-FITC/propidium iodide staining based flow cytometry (reference value: 2.15%); type: functional
[19] = Selectivity index, ratio of IC50 for HFF cells to IC50 for human A549 cells; type: toxicity; details: HFF cells versus A549 cells, read-out: Ratio IC50
SK-OV-3 = assay: Cytotoxicity against human SKOV3 cells assessed as reduction in cell viability after 72 hrs by MTT assay; type: functional, cell-based; details: SK-OV-3, 72 h
A549 [20] = assay: Cytotoxicity against human A549 cells assessed as reduction in cell viability after 72 hrs by MTT assay; type: functional, cell-based; details: A549, 72 h
[21] = Cytotoxicity against human […] cells assessed as reduction in cell viability after 72 hrs by MTT assay; type: functional, cell-based
[22] = Metabolic stability in mouse liver microsomes assessed as parent compound remaining after 90 mins in presence of NADPH by HPLC analysis; type: ADME, microsome; details: read-out: Stability
[23] = Selectivity index, ratio of IC50 for HFF cells to IC50 for human SMCC7721 cells; type: toxicity; details: HFF cells versus SMCC7721 cells, read-out: Ratio IC50
[24] = Metabolic stability in rat liver microsomes assessed as parent compound remaining after 180 mins in presence of NADPH by HPLC analysis; type: ADME, microsome; details: read-out: Stability
MDA-MB-231 [25] = assay: Downregulation of NFkB p65 protein expression in human MDA-MB-231 cells up to 1 uM after 48 hrs by Western blot analysis; type: functional, cell-based
MDA-MB-231 [26] = assay: Induction of apoptosis in human MDA-MB-231 cells assessed as downregulation of Bcl2 protein expression after 48 hrs by Western blot analysis; type: functional, cell-based
MDA-MB-231 [27] = assay: Induction of apoptosis in human MDA-MB-231 cells assessed as early apoptotic cells at 0.1 uM after 24 hrs by Annexin V-FITC/propidium iodide staining based flow cytometry (reference value: 2.33%); type: functional
[28] = Metabolic stability in mouse liver microsomes assessed as parent compound remaining after 180 mins in presence of NADPH by HPLC analysis; type: ADME, microsome; details: read-out: Stability
[29] = Metabolic stability in mouse liver microsomes assessed as parent compound remaining after 120 mins in presence of NADPH by HPLC analysis; type: ADME, microsome; details: read-out: Stability
MDA-MB-231 [30] = assay: Induction of apoptosis in human MDA-MB-231 cells assessed as late apoptotic cells at 1 uM after 24 hrs by Annexin V-FITC/propidium iodide staining based flow cytometry (reference value: 2.97%); type: functional
[31] = Half life in mouse liver microsomes in presence of NADPH by HPLC analysis; type: ADME, microsome
MDA-MB-231 [32] = assay: Induction of apoptosis in human MDA-MB-231 cells assessed as early apoptotic cells at 1 uM after 24 hrs by Annexin V-FITC/propidium iodide staining based flow cytometry (reference value: 2.33%); type: functional
[33] = Selectivity index, ratio of IC50 for HFF cells to IC50 for human U251 cells; type: toxicity; details: HFF cells versus U251 cells, read-out: Ratio IC50
[34] = Selectivity index, ratio of IC50 for HFF cells to IC50 for human LNCAP cells; type: toxicity; details: HFF cells versus LNCAP cells, read-out: Ratio IC50
MCF7 = assay: cells; details: Homo sapiens, MCF7, 72 h
Description: Cytotoxicity against human MCF7 cells assessed as reduction in cell viability after 72 hrs by MTT assay

MDA-MB-231 [35] = assay: Induction of apoptosis in human MDA-MB-231 cells assessed as upregulation of Bax protein expression after 48 hrs by Western blot analysis; type: functional, cell-based
L02 = assay: Cytotoxicity against human HL7702 cells assessed as reduction in cell viability after 72 hrs by MTT assay; type: cell-based; details: L02, 72 h

Compound: COC(=O)[C@]1(C)CCC[C@]2(C)c3ccc(C(C)C)c(NC(=O)Cn4cc(-c5cccc(NC(=O)OC(C)(C)C)c5)nn4)c3CC[C@@H]12
- t1/2 [1]: 69.3 min
- remaining at 1 h [2]: 79.3%
- Activity (MDA-MB-231 [3]): Active
- IC50 (U-251): 1800 nM
- Activity (MDA-MB-231 [4]): 7.57%
- IC50 (SK-BR-3): 900 nM
- remaining at 0.5 h [5]: 85.4%
- IC50 (HCT-116): 1000 nM
- Activity (A549 [6]): inactive
- remaining at 2.5 h [7]: 25.7%
- selectivity ratio [8]: 7.9
- selectivity ratio [9]: 4.5
- IC50 (NCI/ADR-RES [10]): 900 nM
- growth inhibition (GI) (NCI/ADR-RES [10]): Dose-dependent effect
- remaining at 2 h [11]: 58.4%
- logP [12]: 6.07
- IC50 (HFF): 5.4 µM
- selectivity ratio [13]: 5.4
- remaining at 1.5 h [14]: 31.6%
- Stability [15]: 4.8%
- growth inhibition (GI) (NCI/ADR-RES [16]): >50%
- selectivity ratio [17]: 6.1
- Activity (MDA-MB-231 [18]): 7.01%
- selectivity ratio [19]: 4.2
- IC50 (SK-OV-3): 1200 nM
- IC50 (A549 [20]): 1300 nM
- IC50 [21]: 1100 nM
- remaining at 1.5 h [22]: 61.3%
- selectivity ratio [23]: 5.2
- remaining at 3 h [24]: 31%
- Activity (MDA-MB-231 [25]): Active
- Activity (MDA-MB-231 [26]): Active
- Activity (MDA-MB-231 [27]): 4.32%
- remaining at 3 h [28]: 11.1%
- remaining at 2 h [29]: 43.7%
- Activity (MDA-MB-231 [30]): 16.75%
- half-life [31]: 106 min
- Activity (MDA-MB-231 [32]): 6.13%
- selectivity ratio [33]: 3.1
- selectivity ratio [34]: 8.6
- IC50 (MCF7): 800 nM
- Activity (MDA-MB-231 [35]): Active
- IC50 (L02): 7.8 µM

Reference: ChEMBL document CHEMBL4130367, “Click chemistry-based synthesis and anticancer activity evaluation of novel C-14 1,2,3-triazole dehydroabietic acid hybrids” (Eur J Med Chem, 2017)
